Several values for one entry are separate records, joined by “and”; a condition that tells them apart may be missing. Equal values may be shown once.
Tests used:
[1] = Fluorescence titration, binding affinity for TO3-Biotin; details: ligand TO3-B (TO3-Biotin)
From the text: FIG. 2|RNA Mango I, II, III and IV core sequences and their properties. (a) Color coded alignment of RNA Mango I, II, III and IV. G residues in yellow are protected from DMS cleavage (data from panel d) when folded in the presence of fluorophore. Quadruplex stacks and their associated propeller sequences are numbered 1 through 4. The GAAA isolation motif of Mango I, together with two adenines essential for binding, are shown in green and red respectively. Purple shading represents a flanking stem region common for all four Mango aptamers. Schematic: A tertiary structure schematic of Mango I, showing tier 1, 2 and 3 of its quadruplex structure (T1, T2 and T3) and color-coded as in (a). […] Bottom: Top view of the Mango I core (PBD ID: 5V3F), showing the T3 tier of the quadruplex and relevant propeller residues, color coding matches the schematic and panel a. […] KD values are shown next to each titration. (c) Same as for panel b but using 20 nM TO3-Biotin. Data for panels b and c have been normalized such that Mango I has a maximum fluorescence of 1. Error bars are standard deviation of three replicates. (d) DMS chemical protection patterns for the four Mango aptamers. 3′ end-labelled RNA (terminal ^32pCp shown as a black asterisk) was subjected to DMS chemical modification followed by reduction by NaBH4 and aniline cleavage as described in the methods. […] Legend: T1—denatured T1 ladder; OH—partial alkaline hydrolysis ladder; (−) DMS—denatured reaction with ddH2O added in place of DMS; 80° C.
Fluorescence data was gathered using a Varian Cary Eclipse Spectrophotometer unless otherwise stated. […] Fluorescence was measured at the maximum excitation and emission wavelengths of each complex (FIG. 13).
Or to the following equation for TO3-Biotin and NMM experiments: F([RNA])=Fmax[RNA]/(KD+[RNA])+Funbound (Eq. 2) Fmax was determined using Eq. 1 or Eq. 2 as appropriate. Temperature Dependent Fluorescence and UV Melting Curves
(§1) Fluorescence readings were recorded using a Varian Cary Eclipse Spectrophotometer set to measure at the maximum excitation and emission wavelengths of the Mango II aptamer dye complex. Fluorescence titrations were performed in Mango selection buffer (WB: 140 mM KCl, 1 mM MgCl2, 10 mM NaH2PO4 pH 7.2, 0.05% Tween-20).

[2] = Fluorescence titration, binding affinity for TO1-PA; details: ligand TO1-PA
From the text: We determined the affinity and fluorescence enhancement of four compounds: TO1-OAc (TO1-acetate), TO1-ME (TO1-methylester), TO1-PA (TO1-propanylamide), TO1-PE (TO1-pentenoylester) (FIG. 42, Table 8 & 9). Binding affinity and fluorescence enhancement of TO1-OAc is drastically diminished, and nearly identical between the wild-type and A22U mutant. […] Further extension of the linker stabilizes the binding pocket by stacking on T3 but becomes sterically hindered by a bulky purine in position 22. The A22U mutation would limit steric clashes while preventing misfolding of the G-quadruplex core. Thus, the improved properties of the Mango-II A22U mutant may arise from improved packing of the linker of the fluorophore with an RNA with a homogeneous or predominant conformation.
as §1

[3] = Fluorescence enhancement of TO1-OAc; assay type: biochemical; details: ligand TO1-OAc
Protocol: (§2) The bandwidth for all measurements was 1.5 nm for all experiments. Measurements were performed in a 0.2 cm path length cuvette in a background of 20 mM MOPS pH 7.0, 150 mM KCl, 10 μM EDTA. Fluorescence readings were taken in the absence of RNA at a ligand concentration of 0.82 μM. A concentrated, annealed stock of RNA was then added to the cuvette resulting in a final concentration of 2 μM RNA and allowed to equilibrate for 1 minute prior to taking an emission reading. Fluorescence enhancement was determined by dividing the fluorescence signal of ligand in the presence of RNA by the fluorescence signal in the absence of RNA corrected for the background of the instrument.

[4] = Fluorescence enhancement of TO1-ME; assay type: biochemical; details: ligand TO1-ME
Protocol: as §2

[5] = Fluorescence enhancement of TO1-PA; assay type: biochemical; details: ligand TO1-PA
Protocol: as §2

With “Mango-II: minimal construct engineered from isolate R2-1; SEQ ID NO: 6902 GCGUACGAAGGAGAGGAGAGGAAGAGGAGAGUACGC (chemistry not given here)” as the molecule, how does the Kd [1] read?
The Kd was 1.4 nM and ~1.4 nM.

And the Kd [2]?
The Kd was 1.04 ± 0.57 nM.

And the “FIE (fluorescence enhancement)” value [3]?
Its value is 258 ± 10.

What about the “FIE (fluorescence enhancement)” value [4] of the same molecule?
Its value is 401 ± 6.

What about the “FIE (fluorescence enhancement)” value [5] of the same molecule?
The value was 493 ± 5.

B1: Mango II - A22U: Mango-II point mutant; SEQ ID NO: 6903 / 6905 (nucleic acid)
chain 1: GCGUACGAAGGAGAGGAGAGGUAGAGGAGAGUACGC
chain 2: GGCACGUACGAAGGAGAGGAGAGGUAGAGGAGAGUACGUGC
modifications: chemistry not given here
Which Kd [1] does the source give for B1 here?
Its Kd is 5 ± 2.8 nM.

What about the Kd [2] of the same molecule?
The Kd was 2.21 ± 1.09 nM.

What about the “FIE (fluorescence enhancement)” value [3] of the same molecule?
The value was 315 ± 4.

And the “FIE (fluorescence enhancement)” value [4]?
Its value is 302 ± 6.

What about the “FIE (fluorescence enhancement)” value [5] of the same molecule?
The value was 275 ± 3.
